Measurements from patent EP3386957B1, “PROCESS FOR THE PURIFICATION OF 10-DEACETYL BACCATIN III” (RotaChrom Technológiai és Szolgálató Zártkörüen Müködö …, priority 2015, dated 2017).
In brackets after ≈: the same amount, converted by molar mass. Where two headings read alike, the source gives them in different places.

Legend:
Assay type in all cases: physicochemical
[1] = Solubility of 10-DAB III in solvents and biphasic solvent systems
Description: (§1) As such a degree of solubility may only be achieved in a mixture of MIBK, acetone and water after heating, after cooling and shaking the substance crystalized (Margraff, 1995). The partition coefficient of 10-DAB III is around 6. […] The chromatogram according to Figure 3 presents a product purified in such a solvent system.
(§2) It was also surprising to experience that the biphasic system formed by the mixture of methyl tert-butyl ether (hereinafter: MTBE), acetone and water is also suitable for dissolving 10-DAB III, if their volumetric mixing ratio is approximately 4:4:3, in which the upper phase is a mixture of 40% MTBE, 50% acetone and 10% water, and the lower phase is a mixture of 40% water, 50% acetone and 10% MTBE. 10-DAB III is insoluble separately in MTBE and in water, but it dissolves in both phases of the aforementioned ternary solvent mixture, solubility in the upper phase is 50 mg/ml. […] Such contaminants on the basis of the HPLC method below are the RRT=0.68 and the RRT=0.87 contaminants.

[2] = Partition coefficient in biphasic CPC solvent systems
Description: as §1, §2
Liquid chromatography or extraction performed with a chlorinated hydrocarbon is usually used for the separation of chlorophyll and related compounds. […] A solvent system that may be used for this may be the dichloromethane, methanol and water mixture at an approximate volumetric ratio of 3:4:3. In this solvent system the partition coefficient of 10-DAB III is 0.95, while that of the aforementioned problematic contaminants is around 0.4-0.5.

[3] = Selectivity of CPC solvent systems for contaminants of 10-DAB III (contaminants identified by HPLC relative retention time)
Procedure: The HPLC methods used for the analysis: • 1. Isocratic method • Column: Dr Maisch ReproSil-Pur C18-AQ (150x4.0 mm, 3 um) • Column thermostat: 35 °C • Flow rate: 0.75 ml/min • Eluent: 28% acetonitrile, 72% water, 0.1% acetic acid • Detection wavelength: 230 +/- 5 nm • Injected volume: 10 ul • 2. Gradient method • Colum: Phenomenex Kinetex C18 (100x3.0 mm, 2.6 um) • Column thermostat: 35 °C • Flow rate: 0.7 ml/min • Eluent A: water + 0.1% acetic acid Eluent B: acetonitrile Gradient program: 0 min 20% B, 5 min: 30% B, 11 min 40% B, 13 min 40% B, 14 min 20% B, 18 min 20% B • Detection wavelength: 230 +/- 5 nm • Injected volume: 5 ul
Table 3: the selectivity matrix of the individual methods according to the invention

## CC(=O)O[C@@]12CO[C@@H]1C[C@H](O)[C@@]1(C)C(=O)[C@H](O)C3=C(C)[C@@H](O)C[C@@](O)([C@@H](OC(=O)c4ccccc4)[C@H]21)C3(C)C [10-DAB III, 10-deacetylbaccatin III]
[1]; organic solvent or mixture, MTBE/acetone/water approximately 4:4:3, upper phase (40% MTBE, 50% acetone, 10% water), read-out: solubility in the upper phase
  solubility: 50 mg/mL (≈ 91.8 mM)
[1]; separately in MEK or water
  solubility: does not dissolve well
[1]; separately in MTBE and in water
  solubility: insoluble
[1]; upper phase of MEK/water biphasic system, organic solvent or mixture, MEK/water biphasic system, upper phase (MEK saturated with water), read-out: solubility in the upper phase
  solubility: 80 mg/mL (≈ 147 mM)
[2]; MEK/water biphasic system
  partition coefficient: around 6
[2]; MTBE/acetone/water approximately 4:4:3
  partition coefficient: around 2
[2]; dichloromethane, methanol and water approximately 3:4:3
  partition coefficient: 0.95

## CC(=O)O[C@@]12CO[C@@H]1C[C@H](O)[C@@]1(CO)C(=O)[C@H](O)C3=C(C)[C@@H](O)C[C@@](O)([C@@H](OC(=O)c4ccccc4)[C@H]21)C3(C)C [RRT=0.48, 19-OH-10-deacetylbaccatin III]
[3]; CPC solvent mixture DCM/MeOH/water, Table 3
  selectivity: +
[3]; CPC solvent mixture MEK/water, isocratic HPLC method
  selectivity: great selectivity
[3]; CPC solvent mixture MEK/water, Table 3
  selectivity: +++ (high selectivity)
[3]; CPC solvent mixture MTBE/acetone/water, isocratic HPLC method
  selectivity: great selectivity
[3]; prior-art system: mixture of methyl isobutyl ketone, acetone and water
  selectivity: excellent selectivity
